Like-named read-outs stand apart in the source and are kept apart here.
How the values were obtained:
[1] = prior art form of WO 03/016305; cited from earlier work
[2] = prior art form of WO 03/016305; cited from earlier work; remark: listed apart in the source
[3] = Hygroscopicity of crystalline forms of sunitinib malate; format: physicochemical; conditions: crystalline solid form
[4] = Stability (thermodynamic / polymorphic) of crystalline forms of sunitinib malate; format: physicochemical; conditions: crystalline solid form

hygroscopicity [3] | stability [4] | Compound | hygroscopicity [1] | polymorphic conversion [2] | thermodynamic stability [2]
– | – | CCN(CC)CCNC(=O)c1c(C)[nH]c(/C=C2\C(=O)Nc3ccc(F)cc32)c1C.O=C(O)CC(O)C(=O)O [Form II, (Z)—N-[2-(diethylamino)ethyl]-5-(5-fluoro-2-oxo-2,3-dihydro-1H-indole-3-ylidenemethyl)-2,4-dimethyl-1H-pyrrole-3-carboxamide 2(S)-hydroxybutanedioic acid] | hygroscopic | readily convert to form I | thermodynamically unstable
non-hygroscopic | stable | CCN(CC)CCNC(=O)c1c(C)[nH]c(/C=C2\C(=O)Nc3ccc(F)cc32)c1C.O=C(O)CC(O)C(=O)O [form III, (Z)—N-[2-(diethylamino)ethyl]-5-(5-fluoro-2-oxo-2,3-dihydro-1H-indole-3-ylidenemethyl)-2,4-dimethyl-1H-pyrrole-3-carboxamide 2(S)-hydroxybutanedioic acid] | – | – | –

From patent US20110112164A1, “NOVEL POLYMORPHS AND PROCESSES FOR THEIR PREPARATION” (Generics (UK) Limited, priority 2008, published 2011)
